Test results from patent US4892887A, “N,N'-bis(sulfonyl)hydrazines having antineoplastic activity” (Yale University, priority 1988, dated 1990).
Where two headings read alike, the source gives them in different places.

Experiments:
B16 melanoma = test: Survival time of mice bearing the B16 melanoma; assay type: in vivo, mouse (C57B1 mice); details: for Max. % T/C: Table IV, B16, at optimum effective daily dose; for Av. Change in wt., %: at optimum effective daily dose, B16 mice
Method: This tumor was propagated in C57B1mice. Transplantation was carried out by removing tumors from donor mice bearing 14-day subcutaneous tumor growths. The tissue was fragmented to make a well-dispersed cellular suspension and diluted with Fischer's medium without serum so that one gram of tissue was suspended in 5 ml of solution. A portion (0.2 ml) of the resulting cell suspension was injected intraperitoneally into each recipient animal. All compounds were administered over a wide range of dosage levels by intraperitoneal injection, beginning 24 hours after tumor implantation, once daily for 6 consecutive days. The test compounds were injected as fine suspensions following homogenization in 2 to 3 drops of 20% aqueous Tween 80 and then made up to volume with isotonic saline. […] Mice were weighed during the course of the experiments, and the percent change in body weight from onset to termination of therapy was used as an indication of drug toxicity. Determination of the sensitivity of neoplasms to these agents was based on the prolongation of survival time afforded by the drug treatments.
^a Administered once daily for six consecutive days, beginnign 24
hours after tumor transplanation, with 5 animals being used per group.
^b Average change in body weight from onset to termination of therapy
^c % T/C = average survival time of treated/control animals ×
100. Each value represents the average of 5 animals per group.

L1210 leukemia = test: Survival time of mice bearing the L1210 leukemia; assay type: in vivo, mouse (CDF-1 mice); details: for Av. Change wt. %: L1210 mice; for response vs control in vivo at 50 mg/kg / response vs control in vivo at 100 mg/kg / response vs control in vivo at 150 mg/kg: Mus musculus, read-out: % T/C; for Antineoplastic Activity (max. % T/C from Table III): Table II, L1210 leukemia; for activity against the L1210 leukemia (in words): mouse, in vivo; for maximum % T/C, L1210 leukemia: comparison compounds
Description: The ascites cell forms of the L1210 leukemia, Sarcoma 180 and P388 leukemia were propagated in CDF-1 mice. […] Mice were weighed during the course of the experiments, and the percentage change in body weight from the onset to termination of therapy was used as an indication of host toxicity.
Each value represents the average of 5 animals per group.

[1] = Alkylation of 4-(4-nitrobenzyl)pyridine, absorbance at 540 nm (modified Wheeler and Chumley); details: for Relative Alkylating Activity: (O.D. test sample/O.D. compound 8) × 100, pH 7.4, 37°C, 540 nm; for absorbance at 540 nm (alkylating activity): comparison compounds
Method: Since compounds 1-13 were conceived as prodrugs of the alkylating species (II), representative compounds of this class, viz. 1-6, 8 and 10 were tested for alkylating ability using a modification of the method of Wheeler and Chumley. This method measured the absorbance at 540 nm of the alkylated product of 4-(4-nitrobenzyl)pyridine.
^a A solution of the test sample (12 micromoles) in 1 ml of acetone,
ml of distilled water and 1 ml of TrisHCl buffer (pH 7.4) was incubated
with 4(4-nitrobenzyl) pyridine (148 micromoles in 0.4 ml of acetone) for
hr at 37°C. Following additon of 2 ml of acetone and 1.5 ml of 0.2
M NaOH, the material was extracted with 5 ml of ethyl acetate. The
absorbance was determined at 540 nm 30 seconds after the addition of the
sodium hydroxide solution. The greater the absorbance value, the greater
the degree of alkylation
^b Relative Alkylating activity = (O.D. for test sample/O.D. for […]

Sarcoma 180 = test: Survival time of mice bearing Sarcoma 180; assay type: in vivo, mouse (CDF-1 mice)
Method: The tumor-inhibitory properties of compounds 1-12 were determined by measuring their effects on the survival time of mice bearing the L1210 leukemia and in some cases Sarcoma 180, and the P388 leukemia. The ascites cell forms of the L1210 leukemia, Sarcoma 180 and P388 leukemia were propagated in CDF-1 mice. Transplantation was carried out using donor mice bearing 7-day tumor growths; experimental details are described in Agrawal et al., J. Med. Chem., 11, 700, 1968, incorporated herein by reference. Mice were weighed during the course of the experiments, and the percentage change in body weight from the onset to termination of therapy was used as an indication of host toxicity.

B16 melanoma cells = test: Cytotoxicity: colony-forming ability of B16 melanoma cells; assay type: cell-based; details: Mus musculus, 1 hour exposure, 12 days incubation, average of two determinations, read-out: LD50 (the source's name)
Method: The cytotoxicity of compounds 8 and 12 was determined by measuring their effects on the colony-forming ability of B16 melanoma cells. The cells were maintained in Eagle's minimum essential medium supplemented with 10% fetal bovine serum. To obtain exponentially growing B16 melanoma cells, a 25 cm^2 flask was inoculated with 10^5 cells for two days before addition of drug. The cell monolayer was exposed to various concentrations of compound for 1 hour. After exposure, the layer was washed twice with PBS to remove the compound. The cells were harvested with 2 mM EDTA in PBS, and 200 cells were plated on a 60 mm dish with 5 mL of medium. After incubation for 12 days, the colonies were stained with crystal violet and counted. […] The LD50 was determined from the individual dose-response curves.

[2] = 50 mg/kg once daily for six days
[3] = 100 mg/kg once daily for six days
[4] = 150 mg/kg once daily for six days
[5] = 144 h, 50 mg/kg once daily for six days, L1210
[6] = 144 h, 100 mg/kg once daily for six days, L1210
[7] = 144 h, 150 mg/kg once daily for six days, L1210

| Structure (SMILES) | Max. % T/C (B16 melanoma) [% T/C] | Av. Change in wt., % (B16 melanoma) | Average Survival Time of Treated Animals, days ± SE (L1210 leukemia; [2]) [days] | Av. Change wt. % (L1210 leukemia; [2]) | Average Survival Time of Treated Animals, days ± SE (L1210 leukemia; [3]) [days] | Av. Change wt. % (L1210 leukemia; [3]) | Average Survival Time of Treated Animals, days ± SE (L1210 leukemia; [4]) [days] | Av. Change wt. % (L1210 leukemia; [4]) | response vs control in vivo at 50 mg/kg (L1210 leukemia; [5]) [%] | response vs control in vivo at 100 mg/kg (L1210 leukemia; [6]) [%] | response vs control in vivo at 150 mg/kg (L1210 leukemia; [7]) [%] | Antineoplastic Activity (max. % T/C from Table III) (L1210 leukemia) [% T/C] | Relative Alkylating Activity [1] | activity against the L1210 leukemia (in words) (L1210 leukemia) | alkylating activity / absorbance (in words) [1] | further results |
| --- | --- | --- | --- | --- | --- | --- | --- | --- | --- | --- | --- | --- | --- | --- | --- | --- |
| Cc1ccc(S(=O)(=O)N(C)NS(=O)(=O)c2ccccc2)cc1 [Compound 1, N'-benzenesulfonyl-N-methyl-N-(p-toluenesulfonyl)hydrazine] | 168 | +8.5% | 15.0 ± 1.4 | +2.0% | 10.6 ± 0.2 | +5.4% | 10.8 ± 0.5 | -2.7% | 163 | 115 | 117 | 163 | 118 |  |  |  |
| COc1ccc(S(=O)(=O)NN(C)S(=O)(=O)c2ccc(C)cc2)cc1 [Compound 2, N'-(p-methoxybenzenesulfonyl)-N-methyl-N-(p-toluenesulfonyl)hydrazine] | 200 | +9.1% | 10.8 ± 0.6 | +7.7% | 15.0 ± 2.3 | +7.8% | 13.2 ± 2.2 | +2.9% | 117 | 163 | 143 | 163 | 95 |  |  |  |
| Cc1ccc(S(=O)(=O)N(C)NS(=O)(=O)c2ccc(Cl)cc2)cc1 [Compound 3, N'-(p-chlorobenzenesulfonyl)-N-methyl-N-(p-toluenesulfonyl)hydrazine] | 171 | +2.9% | 17.4 ± 1.4 | +3.7% | 10.8 ± 0.6 | +10.0% | 11.2 ± 1.3 | +6.0% |  | 117 | 122 | 189 | 135 | active against the L1210 leukemia |  | response vs control in vivo at 50 mg/kg (L1210 leukemia; L1210, 144 h): 189%; rate of decomposition to a reactive species (in words) [1]: decomposed less rapidly than compound 10 |
| COc1ccc(S(=O)(=O)N(C)NS(=O)(=O)c2ccc(C)cc2)cc1 [Compound 4] | 151 | -14.0% | 10.2 ± 0.5 | +12.6% | 10.2 ± 0.2 | +14.8% | 10.4 ± 0.2 | +9.8% | 111 | 111 | 113 | 113 | 82 | virtually inactive | lowest |  |
| Cc1ccc(S(=O)(=O)NN(C)S(=O)(=O)c2ccc(Cl)cc2)cc1 [Compound 5, N-(p-chlorobenzenesulfonyl)-N-methyl-N'-(p-toluenesulfonyl)hydrazine] | 162 | -0.4% | 10.4 ± 0.4 | +5.1% | 13.0 ± 2.2 | +5.5% | 10.0 ± 0.3 | -4.6% | 113 | 141 | 109 | 141 | 169 | active against the L1210 leukemia |  | rate of decomposition to a reactive species (in words) [1]: decomposed less rapidly than compound 10 |
| CN(NS(=O)(=O)c1ccccc1)S(=O)(=O)c1ccccc1 [Compound 7, N,N'-bis(benzenesulfonyl)-N-methylhydrazine] | 175 | -2.3% | 13.2 ± 0.7 | -4.8% | 11.6 ± 0.2 | -5.2% | 9.4 ± 0.4 | -13.5% | 147 | 129 | 104 |  |  |  |  | Max. % T/C vs. Sarcoma 180 (Sarcoma 180; at 100 mg/kg): 203 % T/C |
| Cc1ccc(S(=O)(=O)NN(C)S(=O)(=O)c2ccc(C)cc2)cc1 [Compound 8, N,N'-bis (4-toluenesulfonyl)-N-methylhydrazine] | 165 | -2.7% | 14.0 ± 1.3 | +3.7% | 13.6 ± 2.4 | +0.8% |  |  | 147 | 143 |  | 147 | 100 |  |  | dosage range of activity against the B16 melanoma (B16 melanoma; B16 melanoma in mice): 50 to 150 mg/kg; Max. % T/C vs. Sarcoma 180 (Sarcoma 180; at 50 mg/kg): 197 % T/C |
| CN(NS(=O)(=O)c1ccc(Cl)cc1)S(=O)(=O)c1ccc(Cl)cc1 [Compound 10, N,N'-bis (p-chlorobenzenesulfonyl)-N-methylhydrazine] | 163 | +4.8% | 9.2 ± 0.2 | +4.1% | 11.4 ± 0.8 | +4.0% | 11.8 ± 1.1 | +1.3% | 97 | 120 |  | 124 | 185 | virtually inactive | highest | response vs control in vivo at 150 mg/kg (L1210 leukemia; L1210, 144 h): 124%; rate of decomposition to a reactive species (in words) [1]: rapid decomposition to a reactive species |
| CCS(=O)(=O)NN(C)S(=O)(=O)c1ccc(C)cc1 [Compound 13] | 174 | -1.1% |  |  |  |  |  |  |  |  |  |  |  |  |  | activity against the B16 melanoma (in words) (B16 melanoma; mouse, in vivo): appreciable levels of activity against the B16 melanoma; IC50 (B16 melanoma cells): 160 nM |
| O=S(=O)(NNS(=O)(=O)c1ccccc1)c1ccccc1 [N,N'-bis(benzenesulfonyl )hydrazine, reference compound] |  |  |  |  |  |  |  |  |  |  |  |  |  | inactive against the L1210 leukemia | negligible alkylating activity | maximum % T/C, L1210 leukemia (L1210 leukemia): 101 % T/C; activity against the L1210 leukemia (in words) (L1210 leukemia; listed as N,N'-bis(benzenesulfonyl)hydrazine): inactivity; absorbance at 540 nm (alkylating activity) [1]: 0 |
| CN(NC(=O)c1ccccc1)C(=O)c1ccccc1 [N,N'-dibenzoyl-N-methylhydrazine, reference compound] |  |  |  |  |  |  |  |  |  |  |  |  |  | inactive against the L1210 leukemia | negligible alkylating activity | maximum % T/C, L1210 leukemia (L1210 leukemia): 97 % T/C; absorbance at 540 nm (alkylating activity) [1]: 10 |
